# Assay: Hydrogen peroxide (H2O2) inhibition assay (fluorescence, DCF/horseradish peroxidase)
# Format: biochemical
# Conditions: for IC50: HCl salt tested where HCl salt MW is given; for Fe-ASC % (cf. 0.4 uM Fe/Asc; cf. CQ, CQ = 100%) / Cu % ASC (cf. CQ = 100%) / Zn % ASC (cf. CQ = 100%): ascorbic acid as reducing substrate; for Fe-ASC % (cf. 0.4 uM Fe/Asc; cf. CQ, CQ = 100%) / Fe-DA % (cf. 0.4 uM Fe/DA; cf. CQ, CQ = 100%): test compound 0.4 μM, lower values = greater inhibition of H2O2; for Fe-DA % (cf. 0.4 uM Fe/DA; cf. CQ, CQ = 100%): dopamine as reducing substrate
# Procedure: Assay 1. Hydrogen Peroxide Assay
# H2O2 is a strong oxidizer and a highly reactive oxygen species that is known to be toxic to surrounding proteins and organelles, inhibiting their function. […] […] H2O2 generated by the system is assessed by measuring the specific fluorescence profile at the excitation and emission wavelengths of 485 and 530 nm respectively, in the presence of test compound. Test compounds were dissolved in DMSO and tested at concentrations of 0.4 μM. Test compounds are ranked according to their capacity to inhibit H2O2 generated by the system where lower values reflect greater ability to inhibit H2O2 production.
SMILES,IC50,"Fe-ASC % (cf. 0.4 uM Fe/Asc; cf. CQ, CQ = 100%)",Cu % ASC (cf. CQ = 100%),Zn % ASC (cf. CQ = 100%),"Fe-DA % (cf. 0.4 uM Fe/DA; cf. CQ, CQ = 100%)"
CCCc1cnc2c(O)c(Cl)ccn2c1=O [Compound 1235],290 nM,86% ASC,,,
CCCCCCCCNC(=O)c1cnc2c(O)cccn2c1=O [Compound 1394],720 nM,96% ASC,,,
"COCc1cnc2c(O)cccn2c1=O [Compound 1398, 9-Hydroxy-3-(methoxymethyl)-4H-pyrido[1,2-a]pyrimidin-4-one]",1290 nM,39% ASC,,,
CCNCc1cc(=O)n2cccc(O)c2n1 [Compound 1400],330 nM,32% ASC,,,
CN(C)Cc1cc(=O)n2cccc(O)c2n1 [Compound 1401],420 nM,55% ASC,,,
CCN1CCN(Cc2cc(=O)n3cccc(O)c3n2)CC1 [Compound 1402],1680 nM,36% ASC,,,
O=c1cc(CN2CCCCC2)nc2c(O)cccn12 [Compound 1403],1700 nM,49% ASC,,,
CCCCNCc1cc(=O)n2cccc(O)c2n1 [Compound 1405],290 nM,35% ASC,,,
O=c1cc(CNCc2ccc(Cl)cc2)nc2c(O)cccn12 [Compound 1406],1140 nM,,,,
"CC(C)CNCc1cc(=O)n2cccc(O)c2n1 [Compound 1408, 9-Hydroxy-2-((isobutylamino)methyl)-4H-pyrido[1,2-a]pyrimidin-4-one hydrogen chloride]",430 nM,,,,
O=c1cc(CNCc2ccc(F)cc2)nc2c(O)cccn12 [Compound 1409],140 nM,,,,
CCCCCCCCNCc1cc(=O)n2cccc(O)c2n1 [Compound 1410],430 nM,62% ASC,,,
O=c1cc(CNCC2CC2)nc2c(O)cccn12 [Compound 1411],330 nM,36% ASC,,,
O=c1cc(CNCCCN2CCOCC2)nc2c(O)cccn12 [Compound 1412],130 nM,29% ASC,,,
CCCCCNCc1cc(=O)n2cccc(O)c2n1 [Compound 1413],190 nM,42% ASC,,,
O=c1cc(CNCc2ccccn2)nc2c(O)cccn12 [Compound 1414],< 100 nM,29% ASC,,,
O=c1cc(CNCCc2ccccn2)nc2c(O)cccn12 [Compound 1415],< 100 nM,34% ASC,,,
O=c1cc(CNCCN2CCCC2)nc2c(O)cccn12 [Compound 1417],130 nM,29% ASC,,,
O=c1cc(CNCCN2CCOCC2)nc2c(O)cccn12 [Compound 1418],240 nM,30% ASC,,,
CCCCCNC(=O)c1cnc2c(O)cccn2c1=O [Compound 1422],680 nM,63% ASC,,,
CCCNC(=O)c1cnc2c(O)cccn2c1=O [Compound 1423],380 nM,45% ASC,,,
"CN(C)Cc1cnc2c(O)cccn2c1=O [Compound 1424, 3-((Dimethylamino)methyl)-9-hydroxy-4H-pyrido[1,2-a]pyrimidin-4-one hydrogen chloride]",800 nM,48% ASC,,,
CC(C)CNC(=O)c1cnc2c(O)cccn2c1=O [Compound 1425],340 nM,,Cu 212% ASC,Zn 69% ASC,76%
O=C(NCCN1CCCC1)c1cnc2c(O)cccn2c1=O [Compound 1426],320 nM,,Cu 212% ASC,Zn 121% ASC,62%
O=C(NCCc1ccccn1)c1cnc2c(O)cccn2c1=O [Compound 1427],180 nM,,Cu 212% ASC,Zn 61% ASC,74%
O=C(NCC1CC1)c1cnc2c(O)cccn2c1=O [Compound 1428],430 nM,,Cu 212% ASC,Zn 74% ASC,75%
O=C(NCc1ccc(Cl)cc1)c1cnc2c(O)cccn2c1=O [Compound 1429],390 nM,,Cu 54% ASC,Zn 57% ASC,148%

SMILES,IC50,"Fe-ASC % (cf. 0.4 uM Fe/Asc; cf. CQ, CQ = 100%)",Cu % ASC (cf. CQ = 100%),Zn % ASC (cf. CQ = 100%),"Fe-DA % (cf. 0.4 uM Fe/DA; cf. CQ, CQ = 100%)"
O=C(NCc1ccc2c(c1)OCO2)c1cnc2c(O)cccn2c1=O [Compound 1432],410 nM,65% ASC,,,66%
CCNC(=O)c1cnc2c(O)cccn2c1=O [Compound 1433],390 nM,152% ASC,,,73%
O=c1cc(CNC2CCCC2)nc2c(O)cccn12 [Compound 1435],230 nM,133% ASC,,,90%
O=C(NC1CCCC1)c1cnc2c(O)cccn2c1=O [Compound 1436],210 nM,190% ASC,,,101%
O=C(NCc1ccc(F)cc1F)c1cnc2c(O)cccn2c1=O [Compound 1437],470 nM,71% ASC,,,71%
CCCCCCNCc1cc(=O)n2cccc(O)c2n1 [Compound 1438],240 nM,143% ASC,,,47%
CCN(CC)Cc1cc(=O)n2cccc(O)c2n1 [Compound 1439],> 10000 nM,156% ASC,,,68%
CCCCCCNC(=O)c1cnc2c(O)cccn2c1=O [Compound 1440],690 nM,66% ASC,,,48%
O=c1cc(CNCc2ccccc2)nc2c(O)cccn12 [Compound 1442],240 nM,128% ASC,,,58%
COc1ccc(CNCc2cc(=O)n3cccc(O)c3n2)cc1 [Compound 1443],250 nM,116% ASC,,,52%
O=c1cc(CNc2ccc(F)cc2F)nc2c(O)cccn12 [Compound 1444],350 nM,105% ASC,,,53%
CNC(=O)c1cnc2c(O)cccn2c1=O [Compound 1445],< 100 nM,176% ASC,,,45%
O=C(NCc1cccnc1)c1cnc2c(O)cccn2c1=O [Compound 1446],340 nM,218% ASC,,,56%
O=C(NCc1ccccn1)c1cnc2c(O)cccn2c1=O [Compound 1447],240 nM,112% ASC,,,52%
O=c1cc(CNc2cccnc2)nc2c(O)cccn12 [Compound 1448],460 nM,137% ASC,,,66%
O=C(NCc1ccncc1)c1cnc2c(O)cccn2c1=O [Compound 1450],380 nM,126% ASC,,,55%
O=c1cc(CNc2ccc(F)cc2)nc2c(O)cccn12 [Compound 1451],580 nM,136% ASC,,,67%
O=C(NCc1ccc(Cl)cc1Cl)c1cnc2c(O)cccn2c1=O [Compound 1452],540 nM,60% ASC,,,49%
O=C(NCc1ccc(C(F)(F)F)cc1)c1cnc2c(O)cccn2c1=O [Compound 1453],340 nM,79% ASC,,,59%
O=C(NCc1ccc(F)c(F)c1)c1cnc2c(O)cccn2c1=O [Compound 1454],1000 nM,65% ASC,,,46%
O=c1cc(CNCc2ccc(C(F)(F)F)cc2)nc2c(O)cccn12 [Compound 1455],350 nM,82% ASC,,,47%
O=c1cc(CNC2CCCCC2)nc2c(O)cccn12 [Compound 1456],390 nM,122% ASC,,,58%
O=c1cc(CNCC2CCCCC2)nc2c(O)cccn12 [Compound 1458],580 nM,137% ASC,,,43%
O=c1cc(CNCc2ccc(F)c(F)c2)nc2c(O)cccn12 [Compound 1459],330 nM,110% ASC,,,48%
"O=C(NC1CCCCC1)c1cnc2c(O)cccn2c1=O [Compound 1460, N-cyclohexyl-9-hydroxy-4-oxo-4H-pyrido[1,2-a]pyrimidine-3-carboxamide]",440 nM,92% ASC,,,29%
O=C(NCC1CCCCC1)c1cnc2c(O)cccn2c1=O [Compound 1461],490 nM,59% ASC,,,57%
